Calls of active or inactive are those of the source. The calls are words filed in the database; no cut-off is given here.
Key:
[1] = system: L1210; assay: Antitumor activity against mouse L1210 cells allografted in BDF1 mouse assessed as increase in life span at 200 mg/kg, ip administered 24 hrs post-implantation measured up to 30 days relative to control; assay type: functional; conditions: route intraperitoneal
[2] = system: L1210; assay: Antitumor activity against mouse L1210 cells allografted in BDF1 mouse assessed as survival at 200 mg/kg, ip administered 24 hrs post-implantation after 30 days; assay type: functional, organism-based; design: dose 200 mg/kg
[3] = system: BGM; assay: Antiviral activity against Poliovirus type 1 Mahoney infected in African green monkey BGM cells after 5 days by pulp disk diffusion assay; assay type: functional, cell-based; conditions: Human poliovirus 1 Mahoney
[4] = system: Vaccinia virus; assay: Antiviral activity against Vaccinia virus IHD infected in African green monkey BGM cells after 6 days by plaque reduction assay; assay type: functional; conditions: Orthopoxvirus vaccinia, 144 h, read-out: ED50 (the source's name)
[5] = system: HeLa; assay: Cytotoxicity against human HeLa cells after 48 hrs by Coulter counting analysis; assay type: functional; conditions: read-out: ED50 (the source's name)
[6] = system: unidentified influenza virus; assay: Antiviral activity against Influenza virus Ao/WNS infected in monkey LLC-MK2 cells after 5 days by pulp disk diffusion assay; assay type: functional, organism-based
[7] = system: Measles morbillivirus; assay: Antiviral activity against Measles virus infected in African green monkey BGM cells after 5 days by pulp disk diffusion assay; assay type: functional, organism-based
[8] = system: Herpesviridae sp.; assay: Antiviral activity against Herpes simplex virus HF infected in African green monkey BGM cells after 6 days by plaque reduction assay; assay type: functional; conditions: 144 h, read-out: ED50 (the source's name)
[9] = system: L1210; assay: Antitumor activity against mouse L1210 cells allografted in po dosed BDF1 mouse administered 24 hrs post-implantation; assay type: functional, organism-based
[10] = system: L1210; assay: Antitumor activity against mouse L1210 cells allografted in BDF1 mouse assessed as increase in life span at 50 mg/kg, ip administered 24 hrs post-implantation measured up to 30 days relative to control; assay type: functional; conditions: route intraperitoneal
[11] = system: L1210; assay: Antitumor activity against mouse L1210 cells allografted in BDF1 mouse assessed as increase in life span at 500 mg/kg, ip administered 24 hrs post-implantation measured up to 30 days relative to control; assay type: functional; conditions: route intraperitoneal
[12] = system: L1210; assay: Antitumor activity against mouse L1210 cells allografted in BDF1 mouse assessed as survival at 50 mg/kg, ip administered 24 hrs post-implantation after 30 days; assay type: functional, organism-based; design: dose 50 mg/kg
[13] = system: L1210; assay: Antitumor activity against mouse L1210 cells allografted in BDF1 mouse assessed as increase in life span at 1000 mg/kg, ip administered 24 hrs post-implantation measured up to 30 days relative to control; assay type: functional; conditions: route intraperitoneal
[14] = system: L1210; assay: Antitumor activity against mouse L1210 cells allografted in BDF1 mouse assessed as survival at 1000 mg/kg, ip administered 24 hrs post-implantation after 30 days; assay type: functional, organism-based; design: dose 1000 mg/kg
[15] = system: Mus musculus; assay: Toxicity in BDF1 mouse allografted with mouse L1210 cells assessed as survival at 200 mg/kg, ip administered 24 hrs post-implantation after 30 days; assay type: organism-based; design: dose 200 mg/kg, route intraperitoneal; conditions: in vivo, 720 h
[16] = system: Mus musculus; assay: Toxicity in BDF1 mouse allografted with mouse L1210 cells assessed as reduction in average life span at 200 mg/kg, ip administered 24 hrs post-implantation measured up to 30 days relative to control; assay type: organism-based; design: dose 200 mg/kg, route intraperitoneal; scale not given: the % may be the effect or the level left; conditions: in vivo
[17] = system: Mus musculus; assay: Toxicity in BDF1 mouse allografted with mouse L1210 cells assessed as reduction in average life span at 1000 mg/kg, ip administered 24 hrs post-implantation measured up to 30 days relative to control; assay type: organism-based; design: dose 1000 mg/kg, route intraperitoneal; scale not given: the % may be the effect or the level left; conditions: in vivo
[18] = system: Mus musculus; assay: Toxicity in BDF1 mouse allografted with mouse L1210 cells assessed as survival at 1000 mg/kg, ip administered 24 hrs post-implantation after 30 days; assay type: organism-based; design: dose 1000 mg/kg, route intraperitoneal; conditions: in vivo, 720 h
[19] = system: L1210; assay: Antitumor activity against mouse L1210 cells allografted in BDF1 mouse assessed as survival at 500 mg/kg, ip administered 24 hrs post-implantation after 30 days; assay type: functional, organism-based; design: dose 500 mg/kg

## CCCCCCCC(=O)OC[C@H]1O[C@@H]2[C@@H](Oc3nc(=N)ccn32)[C@@H]1OC(=O)CCCCCCC.Cl
[1]
  ILS at 200 mg/kg: 28%
[2]
  Activity: inactive
[3]
  Activity: inactive
[4]
  EC50: 560 nM
[5]
  EC50: 0.1 µg/mL
[6]
  Activity: inactive
[7]
  Activity: inactive
[8]
  EC50: 1350 nM
[9]
  Activity: inactive

## CC(=O)O[C@H]1[C@@H]2Oc3nc(=N)ccn3[C@@H]2O[C@@H]1COC(=O)C12C=CC(C)(CC1)CC2.Cl
[1]
  ILS at 200 mg/kg: 20%
[2]
  Activity: inactive
[3]
  Activity: inactive
[4]
  EC50: 400 nM
[5]
  EC50: 0.2 µg/mL
[6]
  Activity: inactive
[7]
  Activity: inactive
[8]
  EC50: 1750 nM
[9]
  Activity: inactive

## CCCCCCCCCCC(=O)OC[C@H]1O[C@@H]2[C@@H](Oc3nc(=N)ccn32)[C@@H]1OC(=O)CCCCCCCCCC.Cl
[10]
  ILS at 50 mg/kg: 88%
[1]
  ILS at 200 mg/kg: > 179%
[11]
  ILS at 500 mg/kg: > 20%
[3]
  Activity: inactive
[4]
  EC50: 410 nM
[5]
  EC50: 0.32 µg/mL
[6]
  Activity: inactive
[7]
  Activity: inactive
[8]
  EC50: 660 nM
[12]
  Activity: inactive
[9]
  Activity: inactive

## CCCCCCCCCCCCCCCCCCCC(=O)OC[C@H]1O[C@@H]2[C@@H](Oc3nc(=N)ccn32)[C@@H]1OC(=O)CCCCCCCCCCCCCCCCCCC.Cl
[10]
  ILS at 50 mg/kg: 8%
[13]
  ILS at 1000 mg/kg: 107%
[14]
  Activity: inactive
[1]
  ILS at 200 mg/kg: 31%
[2]
  Activity: inactive
[3]
  Activity: inactive
[4]
  EC50: > 30000 nM
[5]
  EC50: 2.5 µg/mL
[6]
  Activity: inactive
[7]
  Activity: inactive
[8]
  EC50: > 30000 nM
[12]
  Activity: inactive
[9]
  Activity: inactive

## CCCCCCCCCCCCCCCCCC(=O)OC[C@H]1O[C@@H]2[C@@H](Oc3nc(=N)ccn32)[C@@H]1OC(=O)CCCCCCCCCCCCCCCCC.Cl
[10]
  ILS at 50 mg/kg: 68%
[13]
  ILS at 1000 mg/kg: > 255%
[14]
  Activity: Active
[1]
  ILS at 200 mg/kg: 125%
[2]
  Activity: inactive
[3]
  Activity: inactive
[4]
  EC50: > 30000 nM
[5]
  EC50: 3.8 µg/mL
[6]
  Activity: inactive
[7]
  Activity: inactive
[8]
  EC50: > 30000 nM
[12]
  Activity: inactive
[9]
  Activity: inactive

## CC(=O)OC[C@H]1O[C@@H]2[C@@H](Oc3nc(=N)ccn32)[C@@H]1OC(C)=O.Cl
[1]
  ILS at 200 mg/kg: 7%
[2]
  Activity: inactive
[3]
  Activity: inactive
[4]
  EC50: 690 nM
[5]
  EC50: 0.2 µg/mL
[6]
  Activity: inactive
[7]
  Activity: inactive
[8]
  EC50: 2400 nM
[9]
  Activity: inactive

## CC(=O)O[C@H]1[C@@H]2Oc3nc(=N)ccn3[C@@H]2O[C@@H]1COC(=O)C12CC3CC(CC(C3)C1)C2.Cl
[15]
  Activity: Toxic
[3]
  Activity: inactive
[4]
  EC50: 640 nM
[16]
  Activity: 100%
[5]
  EC50: 0.2 µg/mL
[6]
  Activity: inactive
[7]
  Activity: inactive
[8]
  EC50: 2100 nM
[9]
  Activity: inactive

## CCCCCCCCCC(=O)OC[C@H]1O[C@@H]2[C@@H](Oc3nc(=N)ccn32)[C@@H]1OC(=O)CCCCCCCCC.Cl
[10]
  ILS at 50 mg/kg: 14%
[17]
  Activity: 72%
[15]
  Activity: Toxic
[3]
  Activity: inactive
[4]
  EC50: 320 nM
[16]
  Activity: 69%
[5]
  EC50: 0.2 µg/mL
[6]
  Activity: inactive
[7]
  Activity: inactive
[8]
  EC50: 1100 nM
[12]
  Activity: inactive
[18]
  Activity: Toxic
[9]
  Activity: inactive

## CCCCCCCCCCCCCCCC(=O)OC[C@H]1O[C@@H]2[C@@H](Oc3nc(=N)ccn32)[C@@H]1OC(=O)CCCCCCCCCCCCCCC.Cl
[1]
  ILS at 200 mg/kg: 231%
[2]
  Activity: inactive
[3]
  Activity: inactive
[4]
  EC50: 28000 nM
[5]
  EC50: 4 µg/mL
[6]
  Activity: inactive
[7]
  Activity: inactive
[8]
  EC50: > 30000 nM
[9]
  Activity: inactive

## CC(=O)O[C@H]1[C@@H]2Oc3nc(=N)ccn3[C@@H]2O[C@@H]1COC(=O)C(C)(C)C.Cl
[1]
  ILS at 200 mg/kg: 18%
[2]
  Activity: inactive
[3]
  Activity: inactive
[4]
  EC50: 770 nM
[5]
  EC50: 0.2 µg/mL
[6]
  Activity: inactive
[7]
  Activity: inactive
[8]
  EC50: 3200 nM
[9]
  Activity: inactive

## Cl.N=c1ccn2c(n1)O[C@H]1[C@H](O)[C@@H](CO)O[C@H]12 [ANCITABINE HYDROCHLORIDE]
[13]
  ILS at 1000 mg/kg: 89%
[14]
  Activity: inactive
[1]
  ILS at 200 mg/kg: 25%
[2]
  Activity: inactive
[11]
  ILS at 500 mg/kg: 67%
[3]
  Activity: inactive
[4]
  EC50: 410 nM
[19]
  Activity: inactive
[5]
  EC50: 0.06 µg/mL
[6]
  Activity: inactive
[7]
  Activity: inactive
[8]
  EC50: 700 nM
[9]
  Activity: inactive

## CCCCCCCCCCCCCCCCCCCCCC(=O)OC[C@H]1O[C@@H]2[C@@H](Oc3nc(=N)ccn32)[C@@H]1OC(=O)CCCCCCCCCCCCCCCCCCCCC.Cl
[10]
  ILS at 50 mg/kg: 15%
[13]
  ILS at 1000 mg/kg: 139%
[14]
  Activity: inactive
[1]
  ILS at 200 mg/kg: 55%
[2]
  Activity: inactive
[3]
  Activity: inactive
[4]
  EC50: > 30000 nM
[5]
  EC50: > 10 µg/mL
[6]
  Activity: inactive
[7]
  Activity: inactive
[8]
  EC50: > 30000 nM
[12]
  Activity: inactive
[9]
  Activity: inactive

## CCCCCCCCC(=O)OC[C@H]1O[C@@H]2[C@@H](Oc3nc(=N)ccn32)[C@@H]1OC(=O)CCCCCCCC.Cl
[10]
  ILS at 50 mg/kg: 14%
[15]
  Activity: Toxic
[3]
  Activity: inactive
[4]
  EC50: 320 nM
[16]
  Activity: 88%
[5]
  EC50: 0.06 µg/mL
[6]
  Activity: inactive
[7]
  Activity: inactive
[8]
  EC50: 420 nM
[12]
  Activity: inactive
[9]
  Activity: inactive
